Tests used:
Format in all cases: in vivo
[1] = tested on: cocklebur (Xanthium strumarium); assay: Test B postemergence; settings: 13 to 15 days
Outline: (§1)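 Greenhouse test: chemicals are formulated in a surfactant-containing non-phytotoxic solvent and applied either preemergence to planted seeds or postemergence to plants 2 to 18 cm tall. Response is rated visually versus controls after 13 to 15 days, 0 meaning no effect and 100 complete control.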

[2] = tested on: wild oat (Avena fatua); assay: Test B postemergence; settings: 13 to 15 days
Outline: as §1

[3] = tested on: lambsquarters (Chenopodium album); assay: Test B postemergence; settings: 13 to 15 days
Outline: as §1

[4] = tested on: crabgrass (Digitaria sanguinalis); assay: Test B postemergence; settings: 13 to 15 days
Outline: as §1

[5] = tested on: Sunflower; assay: Test C preemergence; settings: Rate 250 g/ha, visual evaluation after 12 to 14 days
[6] = tested on: giant foxtail (Setaria faberii); assay: Test C preemergence
Outline: (§2)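 Response scores (0 no effect to 100 complete control) came from visual comparison with untreated controls 12 to 14 days after treatment. Preemergence application was made to seeded soil; postemergence, to plants at the 1- to 4-leaf stage.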

[7] = tested on: bermudagrass (Cynodon dactylon); assay: Test C preemergence
Outline: as §2

[8] = tested on: velvetleaf (Abutilon theophrasti); assay: Test C preemergence
Outline: as §2

[9] = tested on: corn (Zea mays); assay: Test C preemergence
Outline: as §2

[10] = tested on: common ragweed (Ambrosia elatior); assay: Test C preemergence
Outline: as §2

[11] = tested on: Nightshade; assay: Test C preemergence
[12] = tested on: pigweed (Amaranthus retroflexus); assay: Test C preemergence
Outline: as §2

[13] = tested on: soybean (Glycine max); assay: Test C preemergence
Outline: as §2

[14] = tested on: cocklebur (Xanthium strumarium); assay: Test C preemergence
Outline: as §2

[15] = tested on: woolly cupgrass (Eriochloa villosa); assay: Test C preemergence
Outline: as §2

[16] = tested on: Surinam grass (Brachiaria decumbens); assay: Test C preemergence
Outline: as §2

[17] = tested on: lambsquarters (Chenopodium album); assay: Test C preemergence
Outline: as §2

[18] = tested on: johnsongrass (Sorghum halepense); assay: Test C preemergence
Outline: as §2

[19] = tested on: Sunflower; assay: Test C preemergence
[20] = tested on: kochia (Kochia scoparia); assay: Test C preemergence
Outline: as §2

[21] = Rate 125 g/ha, scale 0 (no effect) to 100 (complete control)
[22] = Rate 500 g/ha, scale 0 to 100, 0 is no effect, 100 is complete control
[23] = Preemergence, Rate 500 g/ha, scale 0 to 100
[24] = Rate 62 g/ha, scale 0 to 100, 0 no effect, 100 complete control
[25] = preemergence, Rate 31 g/ha, scale 0 to 100
[26] = preemergence, Rate 250 g/ha, visual evaluation after 12 to 14 days
[27] = preemergence, Rate 125 g/ha, scale 0 to 100, 0 no effect, 100 complete control

CCC(CC)c1ccn(C2SCN(c3cccc(C(F)(F)F)c3)C2=O)n1 (centres unmarked) [Compound 25]
Plant response rating, Cocklebur [1, 21]: 60
Plant response rating, Cocklebur [1, 22]: 70
Plant response rating, Wild Oat [2, 21]: 0
Plant response rating, Wild Oat [2, 22]: 0
Plant response rating, Lambsquarters [3, 21]: 100
Plant response rating, Lambsquarters [3, 22]: 100
Plant response rating, Crabgrass [4, 21]: 60
Plant response rating, Crabgrass [4, 22]: 90
Plant response rating (0 to 100), Sunflower [5]: 70
Plant response rating, Foxtail, Giant [6, 23]: 90
Plant response rating, Foxtail, Giant [6, 24]: 90
Plant response rating, Foxtail, Giant [6, 25]: 20
Plant response rating (0 to 100), Foxtail, Giant [6, 26]: 100
Plant response rating, Foxtail, Giant [6, 27]: 70
Plant response rating, Bermudagrass [7, 23]: 100
Plant response rating, Bermudagrass [7, 24]: 100
Plant response rating, Bermudagrass [7, 25]: 90
Plant response rating (0 to 100 where 0 is no effect and 100 is complete control), Bermudagrass [7, 26]: 100
Plant response rating, Bermudagrass [7, 27]: 100
Plant response rating, Velvetleaf [8, 23]: 20
Plant response rating, Velvetleaf [8, 24]: 30
Plant response rating, Velvetleaf [8, 25]: 0
Plant response rating (0 to 100), Velvetleaf [8, 26]: 70
Plant response rating, Velvetleaf [8, 27]: 0
Plant response rating, Corn [9, 23]: 50
Plant response rating, Corn [9, 24]: 0
Plant response rating, Corn [9, 25]: 0
Plant response rating (0 to 100), Corn [9, 26]: 20
Plant response rating, Corn [9, 27]: 20
Plant response rating, Ragweed, Common [10, 23]: 100
Plant response rating, Ragweed, Common [10, 24]: 70
Plant response rating, Ragweed, Common [10, 25]: 0
Plant response rating (0 to 100), Ragweed, Common [10, 26]: 70
Plant response rating, Ragweed, Common [10, 27]: 70
Plant response rating, Nightshade ([11]; Rate 31 g/ha, scale 0 to 100): 20
Plant response rating, Nightshade [11, 24]: 100
Plant response rating, Nightshade ([11]; Rate 125 g/ha, scale 0 to 100, 0 no effect, 100 complete control): 100
Plant response rating, Nightshade ([11]; Rate 500 g/ha, scale 0 to 100): 100
Plant response rating, Pigweed [12, 23]: 90
Plant response rating, Pigweed [12, 24]: 60
Plant response rating, Pigweed [12, 25]: 100
Plant response rating (0 to 100), Pigweed [12, 26]: 90
Plant response rating, Pigweed [12, 27]: 100
Plant response rating, Soybean [13, 23]: 60
Plant response rating, Soybean [13, 24]: 0
Plant response rating, Soybean [13, 25]: 20
Plant response rating (0 to 100), Soybean [13, 26]: 50
Plant response rating, Soybean [13, 27]: 30
Plant response rating, Cocklebur [14, 23]: 70
Plant response rating, Cocklebur [14, 24]: 0
Plant response rating, Cocklebur [14, 25]: 0
Plant response rating (0 to 100), Cocklebur [14, 26]: 100
Plant response rating, Cocklebur [14, 27]: 0
Plant response rating, Cupgrass, Woolly [15, 23]: 100
Plant response rating, Cupgrass, Woolly [15, 24]: 80
Plant response rating, Cupgrass, Woolly [15, 25]: 60
Plant response rating (0 to 100), Cupgrass, Woolly [15, 26]: 100
Plant response rating, Cupgrass, Woolly [15, 27]: 100
Plant response rating, Surinam grass [16, 23]: 80
Plant response rating, Surinam grass [16, 24]: 40
Plant response rating, Surinam grass [16, 25]: 20
Plant response rating (0 to 100), Surinam grass [16, 26]: 80
Plant response rating, Surinam grass [16, 27]: 80
Plant response rating, Lambsquarters [17, 23]: 100
Plant response rating, Lambsquarters [17, 24]: 100
Plant response rating, Lambsquarters [17, 25]: 100
Plant response rating (0 to 100), Lambsquarters [17, 26]: 100
Plant response rating, Lambsquarters [17, 27]: 100
Plant response rating, Johnsongrass [18, 23]: 100
Plant response rating, Johnsongrass [18, 24]: 70
Plant response rating, Johnsongrass [18, 25]: 30
Plant response rating (0 to 100), Johnsongrass [18, 26]: 90
Plant response rating, Johnsongrass [18, 27]: 90
Plant response rating, Sunflower [19, 24]: 30
Plant response rating, Sunflower ([19]; Rate 500 g/ha, scale 0 to 100): 70
Plant response rating, Kochia [20, 23]: 100
Plant response rating, Kochia [20, 24]: 50
Plant response rating, Kochia [20, 25]: 60
Plant response rating (0 to 100), Kochia [20, 26]: 100
Plant response rating, Kochia [20, 27]: 100
